Results: patent US11987575B2, “Tricyclic compounds as BCR-ABL inhibitors” (ASCENTAGE PHARMA (SUZHOU) CO., LTD., priority 2019, dated 2024)

Tests used:
BaF3(WT) = BaF3(WT) (Homo sapiens, UniProt P00519); assay: WST (CCK-8) anti-proliferative assay, BaF3 WT; conditions: read-out: BaF3(WT); BaF3 WT cells, 72 h treatment, CCK-8 readout OD 450 nm
BaF3 (T315I mutant) = BaF3 (T315I mutant) (Homo sapiens, UniProt P00519, T315I, cells depend on it); assay: WST (CCK-8) anti-proliferative assay, BaF3 T315I mutant; conditions: read-out: BaF3 (T315I mutant), 72 h treatment, CCK-8 readout OD 450 nm

Row | SMILES | GI50 (BaF3(WT)) [nM] | GI50 (BaF3 (T315I mutant)) [nM]
1 | CC(C)N1c2c(-c3ccn[nH]3)cc(C(=O)Nc3ccc(OC(F)(F)Cl)cc3)cc2C2CCN(C)CC21 (stereo not drawn) [Compound 40, N-(4-(chlorodifluoromethoxy)phenyl)-9-isopropyl-2-methyl-8-(1H-pyrazol-5-yl)-2,3,4,4a,9,9a-hexahydro-1H-pyrido[3,4-b]indole-6-carboxamide] | 358 | 1110
2 | CC(C)N1c2c(-c3ccn[nH]3)cc(C(=O)Nc3ccc(OC(F)(F)Cl)cc3)cc2C2CCN(CC(F)(F)F)CC21 (stereo not drawn) [Compound 41, N-(4-(chlorodifluoromethoxy)phenyl)-9-isopropyl-8-(1H-pyrazol-5-yl)-2-(2,2,2-trifluoroethyl)-2,3,4,4a,9,9a-hexahydro-1H-pyrido[3,4-b]indole-6-carboxamide] | 120 | 850
3 | CC(=O)N1CCC2c3cc(C(=O)Nc4ccc(OC(F)(F)Cl)cc4)cc(-c4ccn[nH]4)c3N(C(C)C)C2C1 (stereo not drawn) [Compound 42, 2-acetyl-N-(4-(chlorodifluoromethoxy)phenyl)-9-isopropyl-8-(1H-pyrazol-5-yl)-2,3,4,4a,9,9a-hexahydro-1H-pyrido[3,4-b]indole-6-carboxamide] | 38 | 115
4 | CC(=O)NC1CC2c3cc(C(=O)Nc4ccc(OC(F)(F)Cl)cc4)cc(-c4ccn[nH]4)c3N(C(C)C)C2C1 (stereo not drawn) [Compound 43, 2-acetamido-N-(4-(chlorodifluoromethoxy)phenyl)-4-isopropyl-5-(1H-pyrazol-5-yl)-1,2,3,3a,4,8b-hexahydrocyclopenta[b]indole-7-carboxamide] | 190 | 768
5 | CC(=O)NC1CCC2c3cc(C(=O)Nc4ccc(OC(F)(F)Cl)cc4)cc(-c4cc[nH]n4)c3N(CC3(C)CC3)C12 (stereo not drawn) [Compound 45] | 18 | 111
6 | CC(=O)NC1CCC2c3cc(C(=O)Nc4ccc(OC(F)(F)Cl)cc4)cc(-c4cc[nH]n4)c3N(CC(F)(F)F)C12 (stereo not drawn) [Compound 49] | 72 | 125
7 | CC(C)N1c2c(-c3ccn[nH]3)cc(C(=O)Nc3ccc(OC(F)(F)Cl)cc3)cc2[C@@H]2CCS(=O)(=O)C[C@@H]21 [Compound 54-A, (4aS,9aR)-N-(4-(chlorodifluoromethoxy)phenyl)-9-isopropyl-8-(1H-pyrazol-5-yl)-1,3,4,4a,9,9a-hexahydrothiopyrano[3,4-b]indole-6-carboxamide 2,2-dioxide] | 8 | 45
8 | CC(=O)N[C@@H]1CC[C@H]2c3cc(C(=O)Nc4ccc(OC(F)(F)Cl)cc4)cc(-c4ccccn4)c3N(CC(C)(C)C)[C@@H]12 [Compound 56-A] | 56 | 440
9 | CC(=O)N[C@@H]1CC[C@H]2c3cc(C(=O)Nc4ccc(OC(F)(F)Cl)cc4)cc(-c4ccncn4)c3N(CC(C)(C)C)[C@@H]12 [Compound 57-A] | 97 | 316
10 | CC(=O)N[C@@H]1CC[C@H]2c3cc(C(=O)Nc4ccc(OC(F)(F)Cl)cc4)cc(-c4cccnn4)c3N(CC(C)(C)C)[C@@H]12 [Compound 59-A] | 65 | 122
11 | CC(=O)NC1CCC2c3cc(C(=O)Nc4ccc(OC(F)(F)Cl)cc4)cc(-c4ccn[nH]4)c3N(C3CC3)C12 (stereo not drawn) [Compound 62] | 21 | 41
12 | COC(C)(C)CN1c2c(-c3ccn[nH]3)cc(C(=O)Nc3ccc(OC(F)(F)Cl)cc3)cc2C2CCC(NC(C)=O)C21 (stereo not drawn) [Compound 63] | 41 | 52

More lines, now with the values ahead:

Row | GI50 (BaF3(WT)) [nM] | GI50 (BaF3 (T315I mutant)) [nM] | SMILES
13 | 36 | 122 | CC(=O)N(C)C1CCC2c3cc(C(=O)Nc4ccc(OC(F)(F)Cl)cc4)cc(-c4ccn[nH]4)c3N(C(C)C)C21 (stereo not drawn) [Compound 44, N-(4-(chlorodifluoromethoxy)phenyl)-4-isopropyl-3-(N-methylacetamido)-5-(1H-pyrazol-5-yl)-1,2,3,3a,4,8b-hexahydrocyclopenta[b]indole-7-carboxamide]
14 | 2 | 8 | CC(=O)N[C@@H]1CC[C@H]2c3cc(C(=O)Nc4ccc(OC(F)(F)Cl)cc4)cc(-c4cncc(F)c4)c3N(C(C)C)[C@@H]12 [Compound 46-A]
15 | 5 | 13 | CC(=O)N[C@@H]1CC[C@H]2c3cc(C(=O)Nc4ccc(OC(F)(F)Cl)cc4)cc(-c4ccc(C#N)nc4)c3N(C(C)C)[C@@H]12 [Compound 47-A]
16 | 2 | 14 | CC(=O)N[C@@H]1CC[C@H]2c3cc(C(=O)Nc4ccc(OC(F)(F)Cl)cc4)cc(-c4cc(F)cc(C#N)c4)c3N(C(C)C)[C@@H]12 [Compound 48-A]
17 | 4 | 39 | CC(=O)N[C@@H]1CC[C@H]2c3cc(C(=O)Nc4ccc(OC(F)(F)Cl)cc4)cc(-c4cncc(C)c4)c3N(C(C)C)[C@@H]12 [Compound 50-A]
18 | 12 | 116 | COc1cncc(-c2cc(C(=O)Nc3ccc(OC(F)(F)Cl)cc3)cc3c2N(C(C)C)[C@H]2[C@H](NC(C)=O)CC[C@@H]32)c1 [Compound 51-A]
19 | 3 | 47 | CC(=O)N[C@@H]1CC[C@H]2c3cc(C(=O)Nc4ccc(OC(F)(F)Cl)cc4)cc(-c4cncc(Cl)c4)c3N(C(C)C)[C@@H]12 [Compound 52-A]
20 | 3 | 16 | CC(=O)N[C@@H]1CC[C@H]2c3cc(C(=O)Nc4ccc(OC(F)(F)Cl)cc4)cc(-c4cncc(C#N)c4)c3N(C(C)C)[C@@H]12 [Compound 53-A]
21 | 18 | 80 | CC(=O)N[C@@H]1CC[C@H]2c3cc(C(=O)Nc4ccc(OC(F)(F)Cl)cc4)cc(-c4cnccn4)c3N(CC(C)(C)C)[C@@H]12 [Compound 58-A]
22 | 13 | 92 | CC(=O)N[C@@H]1CC[C@H]2c3cc(C(=O)Nc4ccc(OC(F)(F)Cl)cc4)cc(-c4ccc(C)nc4)c3N(CC(C)(C)C)[C@@H]12 [Compound 60-A]
23 | 11 | 56 | CC(=O)N[C@@H]1CC[C@H]2c3cc(C(=O)Nc4ccc(OC(F)(F)Cl)cc4)cc(-c4cnc(C)nc4)c3N(CC(C)(C)C)[C@@H]12 [Compound 61-A]
24 | 8 | 43 | CC(=O)NC1CCC2c3cc(C(=O)Nc4ccc(OC(F)(F)Cl)cc4)cc(-c4cncc(F)c4)c3N(C3CCCC3)C12 (stereo not drawn) [Compound 64]
25 | 9 | 119 | CCC(CC)N1c2c(-c3cncc(F)c3)cc(C(=O)Nc3ccc(OC(F)(F)Cl)cc3)cc2C2CCC(NC(C)=O)C21 (stereo not drawn) [Compound 65]
26 | 3 | 29 | CC(=O)N[C@@H]1CC[C@H]2c3cc(C(=O)Nc4ccc(OC(F)(F)Cl)cc4)cc(-c4cccc(C#N)c4)c3N(C(C)C)[C@@H]12 [Compound 66-A]
27 | 6 | 59 | CC(=O)N[C@@H]1CC[C@H]2c3cc(C(=O)Nc4ccc(OC(F)(F)Cl)cc4)cc(-c4cc(F)cnc4C#N)c3N(C(C)C)[C@@H]12 [Compound 67-A]
